Columns and labels:
RS4;11 cells = test: Cell proliferation assay (MTS), RS4;11 cells, 72 h; type: cell-based; details: Homo sapiens, RS4-11, 72 h
Procedure, shortened: (§1)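 Proliferation was scored by MTS (2 h, then SDS stop, A490 with 650 nm reference) and IC50 derived. Compound ran at nine final concentrations from 1.5 to 10000 nM. DOHH2 were incubated 120 h and RS4;11 72 h, both plated at 5000 cells/well in RPMI-1640 plus 10% FBS.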

DOHH2 cells = test: Cell proliferation assay (MTS), DOHH2 cells, 120 h; type: cell-based; details: Homo sapiens, DOHH-2, 120 h
Procedure, shortened: as §1

SMILES	IC50 (RS4;11 cells) [nM]	IC50 (DOHH2 cells) [nM]
CO[C@H]1CC[C@H](OC[C@@H]2COc3cc(S(=O)(=O)NC(=O)c4ccc(N5CCN(CC6=C(c7ccc(Cl)cc7)CCC(C)(C)C6)CC5)cc4Oc4cnc5[nH]ccc5c4)cc([N+](=O)[O-])c3N2)CC1 [Example 2-252, 2-((1H-pyrrolo[2,3-b]pyridin-5-yl)oxy)-4-(4-((4′-chloro-4,4-dimethyl-3,4,5,6-tetrahydro-[1,1′-biphenyl]-2-yl)methyl)piperazin-1-yl)-N-(((R)-3-((((1r,4R)-4-methoxycyclo-hexyl)oxy)methyl)-5-nitro-3,4-dihydro-2H-benzo[b][1,4]oxazin-7-yl)sulfonyl)benzamide]	29	83
CN1CCN(C[C@@H]2CSc3cc(S(=O)(=O)NC(=O)c4ccc(N5CCN(CC6=C(c7ccc(Cl)cc7)CC(C)(C)CC6)CC5)cc4Oc4cnc5[nH]ccc5c4)cc([N+](=O)[O-])c3N2)CC1 [Example 3-1, (R)-2-((1H-pyrrolo[2,3-b]pyridin-5-yl)oxy)-4-(4-((4′-chloro-5,5-dimethyl-3,4,5,6-tetrahydro-[1,1′-biphenyl]-2-yl)methyl)piperazin-1-yl)-N-((3-((4-methylpiperazin-1-yl)methyl)-5-nitro-3,4-dihydro-2H-benzo[b][1,4]thiazin-7-yl)sulfonyl)benzamide]	1	3
CC1(C)CCC(CN2CCN(c3ccc(C(=O)NS(=O)(=O)c4cc5c(c([N+](=O)[O-])c4)N[C@H](CCN4CCOCC4)CS5)c(Oc4cnc5[nH]ccc5c4)c3)CC2)=C(c2ccc(Cl)cc2)C1 [Example 3-2, (R)-2-((1H-pyrrolo[2,3-b]pyridin-5-yl)oxy)-4-(4-((4′-chloro-5,5-dimethyl-3,4,5,6-tetrahydro-[1,1′-biphenyl]-2-yl)methyl)piperazin-1-yl)-N-((3-(2-morpholinoethyl)-5-nitro-3,4-dihydro-2H-benzo[b][1,4]thiazin-7-yl)sulfonyl)benzamide]	3	13
CC1(C)CCC(CN2CCN(c3ccc(C(=O)NS(=O)(=O)c4cc5c(c([N+](=O)[O-])c4)N[C@H](CN4CCOCC4)CS5)c(Oc4cnc5[nH]ccc5c4)c3)CC2)=C(c2ccc(Cl)cc2)C1 [Example 3-3, (R)-2-((1H-pyrrolo[2,3-b]pyridin-5-yl)oxy)-4-(4-((4′-chloro-5,5-dimethyl-3,4,5,6-tetra-hydro-[1,1′-biphenyl]-2-yl)methyl)piperazin-1-yl)-N-((3-(morpholinomethyl)-5-nitro-3,4-dihydro-2H-benzo[b][1,4]thiazin-7-yl)sulfonyl)benzamide]	35	58
CN(C)C[C@@H]1CSc2cc(S(=O)(=O)NC(=O)c3ccc(N4CCN(CC5=C(c6ccc(Cl)cc6)CC(C)(C)CC5)CC4)cc3Oc3cnc4[nH]ccc4c3)cc([N+](=O)[O-])c2N1 [Example 3-4, (R)-2-((1H-pyrrolo[2,3-b]pyridin-5-yl)oxy)-4-(4-((4′-chloro-5,5-dimethyl-3,4,5,6-tetra-hydro-[1,1′-biphenyl]-2-yl)methyl)piperazin-1-yl)-N-((3-((dimethylamino)methyl)-5-nitro-3,4-dihydro-2H-benzo[b][1,4]thiazin-7-yl)sulfonyl)benzamide]	12	41
CC1(C)CCC(CN2CCN(c3ccc(C(=O)NS(=O)(=O)c4cc5c(c([N+](=O)[O-])c4)N[C@H](CO)CS5)c(Oc4cnc5[nH]ccc5c4)c3)CC2)=C(c2ccc(Cl)cc2)C1 [Example 3-5, (R)-2-((1H-pyrrolo[2,3-b]pyridin-5-yl)oxy)-4-(4-((4′-chloro-5,5-dimethyl-3,4,5,6-tetra-hydro-[1,1′-biphenyl]-2-yl)methyl)piperazin-1-yl)-N-((3-(hydroxymethyl)-5-nitro-3,4-dihydro-2H-benzo[b][1,4]thiazin-7-yl)sulfonyl) benzamide]	8	12
COC[C@@H]1CSc2cc(S(=O)(=O)NC(=O)c3ccc(N4CCN(CC5=C(c6ccc(Cl)cc6)CC(C)(C)CC5)CC4)cc3Oc3cnc4[nH]ccc4c3)cc([N+](=O)[O-])c2N1 [Example 3-6, (R)-2-((1H-pyrrolo[2,3-b]pyridin-5-yl)oxy)-4-(4-((4′-chloro-5,5-dimethyl-3,4,5,6-tetra-hydro-[1,1′-biphenyl]-2-yl)methyl)piperazin-1-yl)-N-((3-(methoxymethyl)-5-nitro-3,4-dihydro-2H-benzo[b][1,4]thiazin-7-yl)sulfonyl)benzamide]	8	14
CC1(C)CCC(CN2CCN(c3ccc(C(=O)NS(=O)(=O)c4cc5c(c([N+](=O)[O-])c4)N[C@@H](CO)CS5)c(Oc4cnc5[nH]ccc5c4)c3)CC2)=C(c2ccc(Cl)cc2)C1 [Example 3-7, (S)-2-((1H-pyrrolo[2,3-b]pyridin-5-yl)oxy)-4-(4-((4′-chloro-5,5-dimethyl-3,4,5,6-tetra-hydro-[1,1′-biphenyl]-2-yl)methyl)piperazin-1-yl)-N-((3-(hydroxymethyl)-5-nitro-3,4-dihydro-2H-benzo[b][1,4]thiazin-7-yl)sulfonyl) benzamide]	10	31
CN(C)C[C@H]1CSc2cc(S(=O)(=O)NC(=O)c3ccc(N4CCN(CC5=C(c6ccc(Cl)cc6)CC(C)(C)CC5)CC4)cc3Oc3cnc4[nH]ccc4c3)cc([N+](=O)[O-])c2N1 [Example 3-8, (S)-2-((1H-pyrrolo[2,3-b]pyridin-5-yl)oxy)-4-(4-((4′-chloro-5,5-dimethyl-3,4,5,6-tetra-hydro-[1,1′-biphenyl]-2-yl)methyl)piperazin-1-yl)-N-((3-((dimethylamino)methyl)-5-nitro-3,4-dihydro-2H-benzo[b][1,4]thiazin-7-yl)sulfonyl)benzamide]	17	67
CN1CCN(C[C@H]2CSc3cc(S(=O)(=O)NC(=O)c4ccc(N5CCN(CC6=C(c7ccc(Cl)cc7)CC(C)(C)CC6)CC5)cc4Oc4cnc5[nH]ccc5c4)cc([N+](=O)[O-])c3N2)CC1 [Example 3-9, (S)-2-((1H-pyrrolo[2,3-b]pyridin-5-yl)oxy)-4-(4-((4′-chloro-5,5-dimethyl-3,4,5,6-tetra-hydro-[1,1′-biphenyl]-2-yl)methyl)piperazin-1-yl)-N-((3-((4-methylpiperazin-1-yl)methyl)-5-nitro-3,4-dihydro-2H-benzo[b][1,4]thiazin-7-yl)sulfonyl)benzamide]	13	24
CC1(C)CCC(CN2CCN(c3ccc(C(=O)NS(=O)(=O)c4cc5c(c([N+](=O)[O-])c4)N[C@@H](CN4CCOCC4)CS5)c(Oc4cnc5[nH]ccc5c4)c3)CC2)=C(c2ccc(Cl)cc2)C1 [Example 3-10, (S)-2-((1H-pyrrolo[2,3-b]pyridin-5-yl)oxy)-4-(4-((4′-chloro-5,5-dimethyl-3,4,5,6-tetra-hydro-[1,1′-biphenyl]-2-yl)methyl)piperazin-1-yl)-N-((3-(morpholinomethyl)-5-nitro-3,4-dihydro-2H-benzo[b][1,4]thiazin-7-yl)sulfonyl)benzamide]	11	32
CC1(C)CCC(CN2CCN(c3ccc(C(=O)NS(=O)(=O)c4cc5c(c([N+](=O)[O-])c4)N[C@H](CCO)CS5)c(Oc4cnc5[nH]ccc5c4)c3)CC2)=C(c2ccc(Cl)cc2)C1 [Example 3-11, (R)-2-((1H-pyrrolo[2,3-b]pyridin-5-yl)oxy)-4-(4-((4′-chloro-5,5-dimethyl-3,4,5,6-tetra-hydro-[1,1′-biphenyl]-2-yl)methyl)piperazin-1-yl)-N-((3-(2-hydroxyethyl)-5-nitro-3,4-dihydro-2H-benzo[b][1,4]thiazin-7-yl)sulfonyl) benzamide]	11	16
COCC[C@@H]1CSc2cc(S(=O)(=O)NC(=O)c3ccc(N4CCN(CC5=C(c6ccc(Cl)cc6)CC(C)(C)CC5)CC4)cc3Oc3cnc4[nH]ccc4c3)cc([N+](=O)[O-])c2N1 [Example 3-12, (R)-2-((1H-pyrrolo[2,3-b]pyridin-5-yl)oxy)-4-(4-((4′-chloro-5,5-dimethyl-3,4,5,6-tetra-hydro-[1,1′-biphenyl]-2-yl)methyl)piperazin-1-yl)-N-((3-(2-methoxyethyl)-5-nitro-3,4-dihydro-2H-benzo[b][1,4]thiazin-7-yl)sulfonyl)benzamide]	84	120
CN(C)CC[C@@H]1CSc2cc(S(=O)(=O)NC(=O)c3ccc(N4CCN(CC5=C(c6ccc(Cl)cc6)CC(C)(C)CC5)CC4)cc3Oc3cnc4[nH]ccc4c3)cc([N+](=O)[O-])c2N1 [Example 3-13, (R)-2-((1H-pyrrolo[2,3-b]pyridin-5-yl)oxy)-4-(4-((4′-chloro-5,5-dimethyl-3,4,5,6-tetra-hydro-[1,1′-biphenyl]-2-yl)methyl)piperazin-1-yl)-N-((3-(2-(dimethylamino)ethyl)-5-nitro-3,4-dihydro-2H-benzo[b][1,4]thiazin-7-yl)sulfonyl)benzamide]	2	2
CN1CCN(CC[C@@H]2CSc3cc(S(=O)(=O)NC(=O)c4ccc(N5CCN(CC6=C(c7ccc(Cl)cc7)CC(C)(C)CC6)CC5)cc4Oc4cnc5[nH]ccc5c4)cc([N+](=O)[O-])c3N2)CC1 [Example 3-14, (R)-2-((1H-pyrrolo[2,3-b]pyridin-5-yl)oxy)-4-(4-((4′-chloro-5,5-dimethyl-3,4,5,6-tetra-hydro-[1,1′-biphenyl]-2-yl)methyl)piperazin-1-yl)-N-((3-(2-(4-methylpiperazin-1-yl)ethyl)-5-nitro-3,4-dihydro-2H-benzo[b][1,4]thiazin-7-yl)sulfonyl)benzamide]	4	9
CC1(C)CCC(CN2CCN(c3ccc(C(=O)NS(=O)(=O)c4cc5c(c([N+](=O)[O-])c4)N[C@@H](CCO)CS5)c(Oc4cnc5[nH]ccc5c4)c3)CC2)=C(c2ccc(Cl)cc2)C1 [Example 3-15, (S)-2-((1H-pyrrolo[2,3-b]pyridin-5-yl)oxy)-4-(4-((4′-chloro-5,5-dimethyl-3,4,5,6-tetra-hydro-[1,1′-biphenyl]-2-yl)methyl)piperazin-1-yl)-N-((3-(2-hydroxyethyl)-5-nitro-3,4-dihydro-2H-benzo[b][1,4]thiazin-7-yl)sulfonyl) benzamide]	13	48
